Measured values as given in patent publication US6391571B1, “Recombinant inactive avidin mutants” (Roche Diagnostics GmbH, priority 1997, dated 2002).

Assays:
[1] = test system: monobiotinylated Fab' antibody fragment; experiment: Affinity of streptavidin muteins to biotin derivatives, BIAcore system; type: binding; conditions: CM5 biosensor, 25° C.
Method: The affinity of the streptavidin muteins to biotin derivatives (constants Kon, Koff and KA) was determined in comparison to core streptavidin (wild type streptavidin) using the BIAcore system from the Pharmacia Co. For this the respective streptavidin samples were immobilized on the surface of biosensor chips (CM5 biosensor). The surface loading was selected in such a way that a measurement signal of 500 to 2000 resonance units (rU) was generated. The association kinetics were recorded for 3 min in each case at 25° C. and with 6 concentrations (12.5, 25, 50, 100, 200 and 400 nmol/l ) of a monobiotinylated Fab' antibody fragment. In order to investigate the influence of the reverse binding of the antibody, the dissociation kinetics in the absence and presence of 10 μg/ml core streptavidin were compared. The specificity of the binding was shown by an experiment with the same body in a non-biotinylated form (negative control).
The binding constants were determined for the purified streptavidin muteins as well as for streptavidin muteins cross-linked with a polymer (streptavidin-mutein […] serum albumin conjugates, preparation: EP-A-0 092).

[2] = native polypeptide, non-covalent complex with biotin; cited from earlier work

wild-type: recombinant core streptavidin (shortened streptavidin), SEQ ID NO.16, produced per WO 93/09144
KA ([1]; monobiotinylated Fab'): >10^10 1/mol
Koff ([1]; monobiotinylated Fab'): <10^−5 1/s
t/2 diss ([1]; monobiotinylated Fab', cell prints h): >20 h
Kon ([1]; streptavidin sample immobilized, 12.5-400 nmol/l monobiotinylated Fab'): 2.2.10^5 1/mol.s

avidin: native avidin, amino acid sequence SEQ ID NO.4
binding affinity to biotin (KA) [2]: about 10^15 l/mol

streptavidin: native streptavidin, protein sequence SEQ ID NO.2
binding affinity to biotin (KA) [2]: about 10^15 l/mol
